Assay results from patent US20160205982A1, “LIFE ENHANCING BEVERAGES” (REOXCYN DISCOVERIES GROUP, INC., priority 2013, published 2016).

What was measured:
NRF2 = assay: Western blot of NRF2 in nuclear extracts of HMVEC-L; assay type: cell-based, human; details: H2O2 30 min, positive control
Protocol: (§1) 8. A Western Blot analysis was done on extra-nuclear and intra-nuclear fractions, separated by differential centrifugation, of serum starved HMVEC-L cell cultures exposed to <1% ASEA compared with a positive hydrogen peroxide control to determine phosphorylation events (oxidant action) in the extra-nuclear fraction and NRF2 (antioxidant transcription) in the intra-nuclear fraction at 0, 30, 60, 90 and 120 min. intervals.
(§2) Experimental Methods for Western Blot Validation of NRF2 Nuclear Accumulation: HMVEC-L were treated with 1% ASEA, nuclear extracts were separated through centrifugal differentiation from the extra-nuclear cytosol at 30, 60 and 120 min and subjected to Western Blot analysis for NRF2. In the Western blot experiment the extra-nuclear fraction was probed for phosphorylated proteins using a combination of anti-phospho serine, threonine and tyrosine antibodies. Virtually all cellular processes are regulated by posttranslational modifications and protein phosphorylation is a prevalent mechanism. Observable changes in protein phosphorylation can lead to a mechanistic understanding of the cellular processes perturbed by ASEA and provide a defined endpoint to better define dose-dependent regulation of cell function by ASEA in vitro, as well as provide a potential candidate molecular marker that may be used to provide in vitro-in vivo correlates. […]

[1] = system: phosphorylated proteins (extra-nuclear fraction); assay: Western blot of protein phosphorylation in extra-nuclear fraction of HMVEC-L; assay type: cell-based, human; details: H2O2 treatment
Protocol: as §1, §2

SMILES: OO [H2O2, Hydrogen peroxide]
- NRF2 levels in nuclear extracts (NRF2): did not increase
- phosphorylation of the protein detected in extra-nuclear fraction [1]: marked increase
